Laboratory results from patent US10875829B1, “Azetidine derivatives useful as modulators of cortical catecholaminergic neurotransmission” (Integrative Research Laboratories Sweden AB, priority 2016, dated 2020).
Structures can show the parent of a compound that is named as a salt. Where two headings read alike, the source gives them in different places. Marks after values point to notes of the source that are not given here.

Legend:
[1] = target: Human 5-HT Transporter (SERT (h)) (Homo sapiens (Human), UniProt P31645); experiment: Radioligand binding assay, human 5-HT transporter ([3H]imipramine); settings: 1 h; single concentration 1.0 E-5 M, duplicate, mean values
Human 5-HT Transporter (SERT (h)), sequence (P31645 whole entry): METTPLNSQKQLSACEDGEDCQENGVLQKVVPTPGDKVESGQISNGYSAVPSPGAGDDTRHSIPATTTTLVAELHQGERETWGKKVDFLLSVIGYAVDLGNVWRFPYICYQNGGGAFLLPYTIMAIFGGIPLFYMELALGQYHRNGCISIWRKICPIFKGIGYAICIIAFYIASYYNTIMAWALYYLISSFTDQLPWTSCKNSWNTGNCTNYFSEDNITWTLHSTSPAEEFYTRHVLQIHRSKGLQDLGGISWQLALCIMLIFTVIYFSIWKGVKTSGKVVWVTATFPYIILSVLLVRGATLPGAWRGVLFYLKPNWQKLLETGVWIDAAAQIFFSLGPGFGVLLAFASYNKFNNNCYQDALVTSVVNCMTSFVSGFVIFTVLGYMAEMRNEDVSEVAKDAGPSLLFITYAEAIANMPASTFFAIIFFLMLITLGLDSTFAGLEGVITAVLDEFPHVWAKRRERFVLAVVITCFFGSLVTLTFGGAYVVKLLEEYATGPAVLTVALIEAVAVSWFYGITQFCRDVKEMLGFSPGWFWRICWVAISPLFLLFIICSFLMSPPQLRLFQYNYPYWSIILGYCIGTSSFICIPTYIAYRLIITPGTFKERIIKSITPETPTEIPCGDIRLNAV
Description: (The measurement was performed as described in Tatsumi, M., Jansen, K., Blakely, R. D. and Richelson, E. (1999), Pharmacological profile of neuroleptics at human monoamine transporters, Eur. J. Pharmacol.
Cell membrane homogenates (12 μg protein) are incubated for 60 min at 22° C. with 2 nM [3H]imipramine in the absence or presence of the test compound in a buffer containing 50 mM Tris-HCl (pH 7.4), 120 mM NaCl, 5 mM KCl and 0.1% BSA.
Nonspecific binding is determined in the presence of 10 μM imipramine.
Following incubation, the samples are filtered rapidly under vacuum through glass fiber filters (GF/B, Packard) presoaked with 0.3% PEI and rinsed several times with an ice-cold buffer containing 50 mM Tris-HCl and 150 mM NaCl using a 96-sample cell harvester (Unifilter, Packard). The filters are dried then counted for radioactivity in a scintillation counter (Topcount, Packard) using a scintillation cocktail (Microscint 0, Packard).
The results are expressed as a percent inhibition of the control radioligand specific binding
(§1) […] Reported values are mean values.

[2] = target: Human Norepinephrine Transporter (NET (h)) (Homo sapiens (Human), UniProt P23975); experiment: Radioligand binding assay, human norepinephrine transporter ([3H]nisoxetine); settings: 2 h; single concentration 1.0 E-5 M, duplicate, mean values
Human Norepinephrine Transporter (NET (h)), sequence (P23975 whole entry): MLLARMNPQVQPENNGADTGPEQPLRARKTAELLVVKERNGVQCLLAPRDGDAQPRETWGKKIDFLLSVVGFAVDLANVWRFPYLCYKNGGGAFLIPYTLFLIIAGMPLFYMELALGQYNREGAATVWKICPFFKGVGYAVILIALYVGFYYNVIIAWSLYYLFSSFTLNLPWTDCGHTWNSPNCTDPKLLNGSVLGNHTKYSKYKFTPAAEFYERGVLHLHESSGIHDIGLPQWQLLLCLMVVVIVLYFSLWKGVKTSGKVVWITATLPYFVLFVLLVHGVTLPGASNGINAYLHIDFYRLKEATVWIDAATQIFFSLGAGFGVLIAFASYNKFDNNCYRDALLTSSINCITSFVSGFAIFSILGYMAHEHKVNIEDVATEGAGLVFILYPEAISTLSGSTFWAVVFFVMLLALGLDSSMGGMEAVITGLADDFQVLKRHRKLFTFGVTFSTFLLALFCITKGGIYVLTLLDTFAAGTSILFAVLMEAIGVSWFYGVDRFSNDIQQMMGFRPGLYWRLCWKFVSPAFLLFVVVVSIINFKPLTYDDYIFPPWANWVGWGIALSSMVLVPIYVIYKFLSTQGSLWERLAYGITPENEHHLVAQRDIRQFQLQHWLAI
Description: (The measurement was performed as described in Pacholczyk, T., Blakely, R. D. and Amara, S. G. (1991), Expression cloning of a cocaine- and antidepressant-sensitive human noradrenaline transporter, Nature, 350: 350)
(§2) Cell membrane homogenates (20 μg protein) are incubated for 120 min at 4° C. with 1 nM [3H]nisoxetine in the absence or presence of the test compound in a buffer containing 50 mM Tris-HCl (pH 7.4), 120 mM NaCl and 5 mM KCl. Nonspecific binding is determined in the presence of 1 μM desipramine. Following incubation, the samples are filtered rapidly under vacuum through glass fiber filters (GF/B, Packard) presoaked with 0.3% PEI and rinsed several times with ice-cold 50 mM Tris-HCl using a 96-sample cell harvester (Unifilter, Packard). The filters are dried then counted for radioactivity in a scintillation counter (Topcount, Packard) using a scintillation cocktail (Microscint 0, Packard).
(§3) The results are expressed as a percent inhibition of the control radioligand specific binding.
as §1

[3] = target: Human Dopamine Transporter (DAT (h)) (Homo sapiens (Human), UniProt Q01959); experiment: Radioligand binding assay, human dopamine transporter ([3H]BTCP); settings: 2 h; single concentration 1.0 E-5 M, duplicate, mean values
Human Dopamine Transporter (DAT (h)), sequence (Q01959 whole entry): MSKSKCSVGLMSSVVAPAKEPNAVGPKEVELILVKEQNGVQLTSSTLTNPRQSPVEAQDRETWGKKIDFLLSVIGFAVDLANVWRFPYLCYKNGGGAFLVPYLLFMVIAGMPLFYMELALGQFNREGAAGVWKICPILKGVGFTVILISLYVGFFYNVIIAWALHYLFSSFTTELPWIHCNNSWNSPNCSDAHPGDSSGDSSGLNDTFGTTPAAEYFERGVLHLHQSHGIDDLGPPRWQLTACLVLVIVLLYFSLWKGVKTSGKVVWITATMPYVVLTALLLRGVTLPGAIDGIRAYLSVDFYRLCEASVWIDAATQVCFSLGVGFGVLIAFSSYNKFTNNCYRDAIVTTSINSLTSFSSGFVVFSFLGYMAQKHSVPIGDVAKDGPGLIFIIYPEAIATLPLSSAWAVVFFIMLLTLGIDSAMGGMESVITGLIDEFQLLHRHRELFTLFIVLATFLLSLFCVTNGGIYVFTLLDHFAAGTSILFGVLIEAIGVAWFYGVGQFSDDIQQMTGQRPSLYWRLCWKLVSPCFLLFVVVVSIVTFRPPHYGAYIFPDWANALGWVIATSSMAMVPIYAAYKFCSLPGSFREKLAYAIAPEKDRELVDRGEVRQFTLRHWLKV
Description: (The measurement was performed as described in Pristuba, Z. B., Wilson, J. M., Hoffman, B. J., Kish, S. J. and Nisnik, H. B. (1994), Pharmacological heterogeneity of the cloned and native human dopamine transporter: disassociation of [3H]WIN 35,428 and [3H]GBR 12,935 binding, Mol. Pharmacol., 45: 125)
Cell membrane homogenates (20 μg protein) are incubated for 120 min at 4° C. with 4 nM
as §2, with “[3H]BTCP” for “Cell membrane homogenates (20 μg protein) are incubated for 120 min at 4° C. with 1 nM [3H]nisoxetine”, “7.4) and 100” for “7.4), 120”, “NaCl.” for “NaCl and 5 mM KCl.”, “10” for “1”, “BTCP.” for “desipramine.”
as §3, §1

NA, DA and 5-HT = experiment: In vivo brain microdialysis: extracellular monoamines in striatum and frontal cortex; design: species or system Sprague-Dawley rats; settings: 50 μmol/kg s.c., n=1-3; for response vs control in vivo at 50 µmol/kg: Rattus norvegicus, sc
Description: The microdialysis technique is a well-established technique for measuring extracellular levels of neurotransmitters (Ungerstedt, J Int Med, 1991, 230; 365-73). The microdialysis technique was used to measure the effect of compounds disclosed herein upon the efflux of monoamine transmitters (NA, DA and 5-HT) in striatum and frontal cortex in conscious, freely moving rats.
Male Sprague-Dawley rats weighing 280-320 g were used throughout the experiments. Before the experiment the animals were housed in groups, maximum five animals in each cage, with free access to water and food. The animals were housed at least one week prior to surgery and use in the experiments.
A modified version (Waters et al., J Neural Transm Gen Sect, 1994, 98(1); 39-55) of the !-shaped probe (Santiago and Westerink, N-S Arch Pharmacol, 1990, 342; 407-14) with the AN69 polyacrylonitrile/sodium methyl sulfonate copolymer (HOSPAL; o.d/i.d. 310/220 μm: dialysis membrane (Gambro, Lund, Sweden) was used in the microdialysis experiments. In the dorsal striatum, probes with an exposed length of 3 mm of dialysis membrane were used and in the prefrontal cortex the corresponding length was 2.5 mm. The rats were operated under isoflurane inhalation anesthesia while mounted into a Kopf stereotaxic instrument. Coordinates were calculated relative to bregma; dorsal striatum AP+1.0, ML±2.6, DV 6.2; Pf cortex, AP+3.2, ML±1.2, DV −4.0 8°, according to Paxinos and Watson (New York, Academic Press, 1986; FIG. 8 and FIG. 14). The dialysis probe was positioned in a burr hole under stereotaxic guidance and cemented with phosphatine dental cement (DAB Dental).
The rats were housed individually in cages for 48 h before the dialysis experiments, allowing them to recover from surgery and minimizing the risk of drug interactions with the anesthetics during the following experiments. During this period the rats had free access to food and water. On the day of the experiment the rats were connected to a micro-perfusion pump via a swivel and were replaced in the cage where they could move freely within its confinements. The perfusion medium was a Ringer's solution containing (in mmol/l): NaCl; 140, CaCl2); 1.2, KCl; 3.0, MgCl2; 1.0 (Moghaddam and Bunney. Neurochem., 1989, 53; 652-4). The pump was set to a perfusion speed of 2 μl/min and 40 μl sample volume were collected every 20 min.
The rats were perfused for at least 40 min before sampling began. Five fractions of each 20 min were collected and the last three were used for the establishment of the baseline. After collection of baseline fractions, the pharmacological challenge to the dialysis experiment started. Test compounds were administrated by injection (s.c.) in a volume of 5 ml/kg, with 0.9% NaCl (saline) as vehicle.
The analytical method were based on two chromatographic separations dedicated for amines or acids. Two chromatographic systems shared a common auto injector with a 10-port valve and two sample loops for simultaneous injection on the two systems.
The acids were separated by reversed phase chromatography while the amines were separated by reversed phase ion pairing chromatography preceded by a reverse phase separation in a column switching configuration. Three separation columns (Luna C18 (2), dp 3 μm, 2 mm i.d., Phenomenex) of different lengths were used. Electrochemical detection was accomplished on glassy carbon electrodes (MF-1000, Bioanalytical Systems, Inc.)
The aqueous mobile phase (0.6 ml/min) for the acid system contained citric acid (40 mM, dipotassium hydrogen phosphate 10 mM, methanol 8-11% (v/v) and EDTA 0.1 mM. Column length was 30 mm and detection potential relative to Ag/AgCl reference was 0.74V.
The aqueous ion pairing mobile phase (0.4 ml/min) for the amine system contained citric acid 5 mM, sodium citrate 10 mM, acetone 9% (v/v), tetrahydrofurane 3% (v/v), dodecane sulphonic acid 0.025 mM, and EDTA 0.1 mM. Column length was 50 mm and the preceding column was 20 mm. […]

[4] = frontal cortex, read-out: DA FC, maximum effect compared to baseline ± SEM
[5] = frontal cortex, read-out: NA FC, maximum effect compared to baseline ± SEM
[6] = striatum, read-out: 5-HT Stri, maximum effect compared to baseline ± SEM
[7] = striatum, read-out: DA Stri, maximum effect compared to baseline ± SEM
[8] = frontal cortex, read-out: 5-HT FC, maximum effect compared to baseline ± SEM

Row | Compound | inhibition at 10 µM [1] [%] | inhibition at 10 µM [2] [%] | inhibition at 10 µM [3] [%] | NA Stri, maximum effect compared to baseline ± SEM (NA, DA and 5-HT; striatum) | response vs control in vivo at 50 µmol/kg (NA, DA and 5-HT; [4]) [%] | response vs control in vivo at 50 µmol/kg (NA, DA and 5-HT; [5]) [%] | response vs control in vivo at 50 µmol/kg (NA, DA and 5-HT; [6]) [%] | response vs control in vivo at 50 µmol/kg (NA, DA and 5-HT; [7]) [%] | response vs control in vivo at 50 µmol/kg (NA, DA and 5-HT; [8]) [%]
1 | Fc1c(F)c(F)c(OC2CNC2)c(F)c1F [Example 43, 3-(2,3,4,5,6-pentafluoro-phenoxy)azetidine hydrochloric acid salt] | -7.6 | -1 | 11 | – | – | – | – | – | –
2 | CN1CC(Oc2c(F)c(F)cc(F)c2F)C1 [Example 38, 1-methyl-3-(2,3,5,6-tetrafluorophenoxy)azetidine hydrochloric acid salt] | -11 | 6 | 11 | 306 ± 146^a % of control | 467 ± 20 | 422 ± 102 | 205 ± 20 | 203 ± 8 | 148 ± 12
3 | Fc1ccc(OC2CNC2)c(F)c1F [Example 10, 3-(2,3,4-trifluoro-phenoxy)azetidine fumaric acid salt] | 29 | -2 | 15 | – | 466 ± 161 | 799 ± 137 | – | 126 ± 10 | 709 ± 139

Now from value to compound, other results behind:

Row | inhibition at 10 µM [1] [%] | inhibition at 10 µM [2] [%] | inhibition at 10 µM [3] [%] | Compound | NA Stri, maximum effect compared to baseline ± SEM (NA, DA and 5-HT; striatum) | response vs control in vivo at 50 µmol/kg (NA, DA and 5-HT; [4]) [%] | response vs control in vivo at 50 µmol/kg (NA, DA and 5-HT; [5]) [%] | response vs control in vivo at 50 µmol/kg (NA, DA and 5-HT; [6]) [%] | response vs control in vivo at 50 µmol/kg (NA, DA and 5-HT; [7]) [%] | response vs control in vivo at 50 µmol/kg (NA, DA and 5-HT; [8]) [%]
4 | 10 | 6 | 12 | Fc1cc(F)c(OC2CNC2)c(F)c1 [Example 49, 3-(2,4,6-Trifluorophenoxy)azetidine hydrochloric acid salt] | 353^b % of control | 391 ± 131 | 862 ± 437 | 573 ± 1 | 135 ± 2 | –
5 | 25 | 5 | 10 | Fc1cc(F)c(OC2CNC2)cc1F [Example 51, 3-(2,4,5-Trifluorophenoxy)azetidine hydrochloric acid salt] | 475^b % of control | 389 ± 134 | 910 ± 389 | 663 ± 63 | 144 ± 4 | 998 ± 470
6 | 28 | 3 | 17 | Fc1cc(OC2CNC2)cc(F)c1F [Example 50, 3-(3,4,5-Trifluorophenoxy)azetidine hydrochloric acid salt] | – | 787 ± 131 | – | 574 ± 45 | 139 ± 20 | 752 ± 235
